# ChEMBL document CHEMBL5209586, “Membrane potential-based assay for SLC34A1 using HEK293 JumpIn SLC34A1 OE cells” (2022)
# Biological target: T1, Sodium-dependent phosphate transport protein 2A (Homo sapiens, UniProt Q06495)
# T1 sequence (Q06495 whole entry): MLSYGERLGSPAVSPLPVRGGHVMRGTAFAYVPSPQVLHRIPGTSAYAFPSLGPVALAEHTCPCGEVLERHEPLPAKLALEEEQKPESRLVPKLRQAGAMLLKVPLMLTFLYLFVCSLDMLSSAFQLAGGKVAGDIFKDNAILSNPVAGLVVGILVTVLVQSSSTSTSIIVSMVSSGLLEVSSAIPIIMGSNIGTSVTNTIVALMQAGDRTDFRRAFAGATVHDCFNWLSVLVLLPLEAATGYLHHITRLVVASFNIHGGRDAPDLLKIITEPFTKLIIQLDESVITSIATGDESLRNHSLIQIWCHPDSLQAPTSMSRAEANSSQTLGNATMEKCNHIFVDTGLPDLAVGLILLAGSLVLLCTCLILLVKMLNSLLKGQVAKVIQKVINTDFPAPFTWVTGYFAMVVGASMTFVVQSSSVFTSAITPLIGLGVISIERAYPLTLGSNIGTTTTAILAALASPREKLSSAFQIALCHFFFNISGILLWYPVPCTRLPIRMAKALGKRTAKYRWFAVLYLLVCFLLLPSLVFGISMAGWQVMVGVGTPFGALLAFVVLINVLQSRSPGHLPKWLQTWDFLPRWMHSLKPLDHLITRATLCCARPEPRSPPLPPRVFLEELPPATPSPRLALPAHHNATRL
# Description: Substrate uptake by the Sodium-Dependent Phosphate Transport Protein 2A (NPT2a, SLC34A1) as assessed by the fluorescent FLIPR membrane potential dye in HEK-293 JumpIN-SLC34A1 cells (PubChem AID: 1794813)
row,EC50,SMILES
1,32 µM,"O=P([O-])([O-])O.[Na+].[Na+] [SODIUM PHOSPHATE, DIBASIC, ANHYDROUS]"
2,39 µM,"O=P([O-])(O)O.[K+] [POTASSIUM PHOSPHATE, MONOBASIC]"
